Measured values published in publication PMC6685790 (Nature structural & molecular biology, 2008).
Where a chain is given by its changes, count along the chain named. Where two headings read alike, the source gives them in different places.

Tests used:
[1] = test system: Zn^2+-activated GlyRs (ZAGs); type: cell-based, human
[2] = target: T1, GlyR α1^F108A (Homo sapiens, UniProt P23415, F136A); type: cell-based
T1 sequence (P23415 29-457 F136A): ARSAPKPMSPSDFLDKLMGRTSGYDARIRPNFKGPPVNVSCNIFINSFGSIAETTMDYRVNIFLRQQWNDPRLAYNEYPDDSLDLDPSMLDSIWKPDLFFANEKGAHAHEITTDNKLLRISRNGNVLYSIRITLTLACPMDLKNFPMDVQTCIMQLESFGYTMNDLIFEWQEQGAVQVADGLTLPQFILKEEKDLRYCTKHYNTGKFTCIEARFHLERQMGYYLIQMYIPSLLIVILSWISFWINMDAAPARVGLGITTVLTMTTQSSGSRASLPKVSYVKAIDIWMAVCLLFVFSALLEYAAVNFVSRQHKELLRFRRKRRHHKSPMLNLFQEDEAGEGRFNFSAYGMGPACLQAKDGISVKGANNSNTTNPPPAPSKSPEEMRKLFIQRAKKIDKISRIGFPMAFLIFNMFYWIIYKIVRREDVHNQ

[3] = target: T2, GlyR α1^F99A (Homo sapiens, UniProt P23415, F127A); assay: Whole-cell recording of substituted GlyR in HEK cells; type: cell-based
T2 sequence (P23415 29-457 F127A): T1 sequence (P23415 29-457 F136A) with F99A, A108F

[4] = target: T3, GlyR α1^L134A (Homo sapiens, UniProt P23415, L162A); assay: as above; type: cell-based
T3 sequence (P23415 29-457 L162A): T1 sequence (P23415 29-457 F136A) with A108F, L134A

[5] = target: T4, GlyR α1^L98A (Homo sapiens, UniProt P23415, L126A); assay: as above; type: cell-based
T4 sequence (P23415 29-457 L126A): T1 sequence (P23415 29-457 F136A) with L98A, A108F

[6] = read-out: Zn^2+ complexation KD; ref [52]; cited from earlier work

For `N#C[B-](c1ccccc1)(c1ccccc1)c1ccccc1` [CTB, cyanotriphenylborate], the “Standing current remaining after block of spontaneous leak” value ([1]; CTB 20 μM, considered full abolition of receptor-mediated leak) was “less than 50 pA” and the “Effect on Zn^2+-activated currents” value [2] was “abolished”.

With `c1ccc(CN(CCN(Cc2ccccn2)Cc2ccccn2)Cc2ccccn2)nc1` [TPEN, N,N,N’,N’-tetrakis-(2-pyridylmethyl)-ethylenediamine] the “Effect on leak current (component caused by Zn^2+ contamination)” value ([1]; TPEN 100 μM, α1^L98A, α1^F99A, α1^F108A, α1^L134A) was “reduced”.

In the case of `O=C1C[C@@H]2OCC=C3CN4CC[C@]56c7ccccc7N1[C@H]5[C@H]2[C@H]3C[C@H]46` [strychnine], the “Attenuation of leak current” value [3] is reported as 100%, the “Loss of potency inhibiting leak current compared to glycine-activated currents” value [1] is reported as 10 fold and the “Attenuation of leak current” value [4] is reported as 90 ± 4%. For the same compound, the “Effect on Zn^2+ activation” value [5] was “inhibited”.

For `O=C(O)CNC(CO)(CO)CO` [tricine], the Kd [6] is listed as 10 µM.

In the case of picrotoxin, the “Effect on Zn^2+ activation” value ([5]; picrotoxin, α1^L98A, Zn^2+ EC50-activated currents (Fig. 2f)) is reported as “inhibited”.
